Measured values reported in ChEMBL document CHEMBL5331082, “p53 as a potential target for treatment of cancer: A perspective on recent advancements in small molecules with structural insights and SAR studies” (Eur J Med Chem, 2023).
In brackets after ≈: the same amount, converted by molar mass.

Columns and labels:
[1] = system: K562; assay: Antiproliferative activity against human K562 cells assessed as inhibition of cell growth; assay type: functional, cell-based
[2] = system: MDA-MB-231; assay: Antiproliferative activity against human MDA-MB-231 cells assessed as inhibition of cell growth; assay type: functional, cell-based
[3] = system: MCF7; assay: Antiproliferative activity against human MCF7 cells assessed as inhibition of cell growth; assay type: functional, cell-based
[4] = system: JEG-3; assay: Antiproliferative activity against human JEG-3 cells assessed as inhibition of cell growth; assay type: functional, cell-based
[5] = system: HeLa; assay: Antiproliferative activity against human HeLa cells assessed as inhibition of cell growth by MTT assay; assay type: functional, cell-based
[6] = system: MCF7; assay: Antiproliferative activity against human MCF7 cells assessed as inhibition of cell growth by MTT assay; assay type: functional, cell-based
[7] = system: HCT-116; assay: Antiproliferative activity against human HCT-116 cells assessed as inhibition of cell growth by MTT assay; assay type: functional, cell-based
[8] = target: T1, Tumour suppressor p53/oncoprotein Mdm2 (Homo sapiens, UniProt P04637+Q00987); assay: Inhibition of MDM2/p53 interaction (unknown origin); assay type: protein assay
T1 sequence (P04637 whole entry): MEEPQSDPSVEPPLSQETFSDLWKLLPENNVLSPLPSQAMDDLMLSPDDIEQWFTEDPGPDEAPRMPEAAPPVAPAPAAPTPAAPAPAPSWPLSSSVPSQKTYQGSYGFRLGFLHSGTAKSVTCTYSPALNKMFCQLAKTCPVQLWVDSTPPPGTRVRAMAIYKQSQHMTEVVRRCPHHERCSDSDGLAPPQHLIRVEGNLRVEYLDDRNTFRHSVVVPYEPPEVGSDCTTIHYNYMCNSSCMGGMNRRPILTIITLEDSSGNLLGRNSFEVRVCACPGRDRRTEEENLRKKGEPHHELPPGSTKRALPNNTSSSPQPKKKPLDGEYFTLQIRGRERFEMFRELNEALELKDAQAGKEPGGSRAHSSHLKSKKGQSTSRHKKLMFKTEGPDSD
T1 sequence (Q00987 whole entry): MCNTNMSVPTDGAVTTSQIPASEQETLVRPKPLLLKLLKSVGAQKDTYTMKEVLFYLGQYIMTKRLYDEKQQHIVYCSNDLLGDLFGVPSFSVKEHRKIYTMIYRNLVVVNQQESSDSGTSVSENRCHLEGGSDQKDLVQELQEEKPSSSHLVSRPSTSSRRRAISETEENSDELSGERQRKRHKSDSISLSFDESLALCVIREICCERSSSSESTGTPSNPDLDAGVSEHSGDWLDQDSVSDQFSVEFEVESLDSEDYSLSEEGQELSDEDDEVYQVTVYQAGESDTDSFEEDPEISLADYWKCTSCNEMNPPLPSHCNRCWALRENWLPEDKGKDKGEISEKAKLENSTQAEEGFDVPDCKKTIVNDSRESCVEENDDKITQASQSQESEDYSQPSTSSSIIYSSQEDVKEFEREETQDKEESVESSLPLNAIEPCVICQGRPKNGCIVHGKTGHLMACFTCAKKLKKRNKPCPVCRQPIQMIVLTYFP

[9] = system: PC-3; assay: Antiproliferative activity against human PC-3 cells assessed as inhibition of cell growth by MTT assay; assay type: functional, cell-based
[10] = system: LNCaP; assay: Antiproliferative activity against human LNCaP cells expressing p53 assessed as inhibition of cell growth by MTT assay; assay type: functional, cell-based
[11] = target: E3 ubiquitin-protein ligase Mdm2 (Homo sapiens) (UniProt Q00987); assay: Binding affinity to MDM2 (unknown origin) at 10 uM relative to control
Chain of E3 ubiquitin-protein ligase Mdm2 (Homo sapiens) (Q00987 whole entry, looked up): as the sequence (Q00987 whole entry) above

[12] = system: U-87 MG; assay: Antiproliferative activity against human U-87 MG cells assessed as inhibition of cell growth by CCK-8 assay; assay type: functional, cell-based, U-87MG ATCC
[13] = system: SH-SY5Y; assay: Antiproliferative activity against human SH-SY5Y cells assessed as inhibition of cell growth by CCK-8 assay; assay type: functional, cell-based
[14] = system: HCT-116; assay: Antiproliferative activity against human HCT-116 cells assessed as inhibition of cell growth by CCK-8 assay; assay type: functional, cell-based
[15] = system: PANC-1; assay: Antiproliferative activity against human PANC-1 cells assessed as inhibition of cell growth by MTT assay; assay type: functional, cell-based
[16] = system: A549; assay: Antiproliferative activity against human A549 cells assessed as inhibition of cell growth by MTT assay; assay type: functional, cell-based
[17] = target: E3 ubiquitin-protein ligase Mdm2 (Homo sapiens) (UniProt Q00987); assay: Binding affinity to MDM2 (unknown origin) assessed as change in Gibbs free energy
[18] = system: HT-29; assay: Antiproliferative activity against human HT-29 cells assessed as inhibition of cell growth by MTT assay; assay type: functional, cell-based
[19] = system: U-87 MG; assay: Antiproliferative activity against human U87 cells assessed as inhibition of cell growth; assay type: functional, cell-based, U-87MG ATCC
[20] = system: A549; assay: Antiproliferative activity against human A549 cells assessed as inhibition of cell growth; assay type: functional, cell-based
[21] = system: HL-60; assay: Antiproliferative activity against human HL-60 cells assessed as inhibition of cell growth; assay type: functional, cell-based
[22] = system: A549; assay: Induction of apoptosis in human A549 cells assessed as increase in p53 level; assay type: functional
[23] = system: HCT-116; assay: Antiproliferative activity against human HCT-116 cells assessed as inhibition of cell growth; assay type: functional, cell-based
[24] = system: HCT-116; assay: Induction of apoptosis in human HCT-116 cells assessed as increase in p53 level; assay type: functional
[25] = system: PC-3; assay: Antiproliferative activity against human PC-3 cells assessed as inhibition of cell growth; assay type: functional, cell-based
[26] = system: MDA-MB-231; assay: Induction of apoptosis in human MDA-MB-231 cells assessed as increase in p53 level; assay type: functional
[27] = system: PC-3; assay: Induction of apoptosis in human PC-3 cells assessed as increase in p53 level; assay type: functional
[28] = target: Tumour suppressor protein p53/Mdm4 (Homo sapiens, UniProt O15151+P04637); assay: Binding affinity to MDM4/p53 interaction (unknown origin) assessed as inhibition constant; assay type: protein assay
Chain of Tumour suppressor protein p53/Mdm4 (P04637 whole entry): as the sequence (P04637 whole entry) above
Chain of Tumour suppressor protein p53/Mdm4 (O15151 whole entry): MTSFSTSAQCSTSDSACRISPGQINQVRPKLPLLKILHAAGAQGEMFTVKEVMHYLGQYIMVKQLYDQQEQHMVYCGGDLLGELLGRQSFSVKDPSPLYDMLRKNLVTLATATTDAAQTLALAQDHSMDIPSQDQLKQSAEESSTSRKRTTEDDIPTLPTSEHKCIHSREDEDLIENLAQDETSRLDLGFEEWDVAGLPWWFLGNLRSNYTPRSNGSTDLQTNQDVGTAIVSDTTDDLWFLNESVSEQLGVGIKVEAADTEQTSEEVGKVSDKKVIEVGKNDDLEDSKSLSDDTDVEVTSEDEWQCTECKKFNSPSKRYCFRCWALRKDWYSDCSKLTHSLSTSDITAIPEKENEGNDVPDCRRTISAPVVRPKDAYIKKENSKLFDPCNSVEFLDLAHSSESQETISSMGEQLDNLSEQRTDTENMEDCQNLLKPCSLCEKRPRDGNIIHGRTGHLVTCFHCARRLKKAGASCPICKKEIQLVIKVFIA

[29] = target: T1, Tumour suppressor p53/oncoprotein Mdm2; assay: Binding affinity to MDM2/p53 interaction (unknown origin) assessed as inhibition constant; assay type: protein assay

## COc1ccc(/C=C2\CCC[C@@]3(C2=O)[C@@H]2CCCN2[C@@]2(C(=O)Nc4ccccc42)[C@H]3c2ccc(OC)cc2)cc1
[1]
  IC50: 13.4 µM

## C[C@@H]1CN(C)[C@]2(C(=O)N(CN3CCCC3)c3ccccc32)[C@@]12CCC/C(=C\c1ccccc1)C2=O
[2]
  IC50: 31 µg/mL
[3]
  IC50: 31 µg/mL
[4]
  IC50: 31 µg/mL (≈ 66 µM)

## C[C@@H]1[C@@H]2CCCC[C@@H]2N2[C@H]1[C@@H](c1ccccc1)[C@@]1(CCC/C(=C\c3ccccc3)C1=O)[C@@]21C(=O)Nc2ccccc21
[5]
  IC50: 7.1 µM

## Cc1cc(S(=O)(=O)/N=C2/NCCN2Cc2cc(C(F)(F)F)cc(C(F)(F)F)c2)c(SCc2nc(N)nc(N3CCN(c4ccccc4)CC3)n2)cc1Cl
[5]
  IC50: 3.6 µM
[6]
  IC50: 3.6 µM
[7]
  IC50: 3.6 µM

## O=c1[nH]cc(F)c(=O)[nH]1 [FLUOROURACIL]
[3]
  IC50: 78.3 µM

## C[C@@H]1[C@@H]2CCCC[C@@H]2N2[C@H]1[C@@H](c1ccc(F)cc1)[C@@]1(CCC/C(=C\c3ccc(F)cc3)C1=O)[C@@]21C(=O)Nc2cc(Cl)ccc21
[5]
  IC50: 7.2 µM

## COc1cc(OC)c(C(=O)/C=C/c2ccc(Br)cc2)c(OCC=C(C)C)c1
[8]
  IC50: 2.1 µM

## O=C1/C(=C/c2ccc(Br)cc2)CCC[C@]12[C@@H]1CCCN1[C@@]1(C(=O)Nc3ccccc31)[C@H]2c1ccc(Br)cc1
[3]
  IC50: 15.5 µM

## Cc1cc(S(=O)(=O)/N=C2/NCCN2Cc2cc(C(F)(F)F)cc(C(F)(F)F)c2)c(SCc2nc(N)nc(N3CCN(Cc4ccccc4)CC3)n2)cc1Cl
[5]
  IC50: 4.8 µM
[6]
  IC50: 4.8 µM
[7]
  IC50: 4.8 µM

## COc1ccc([C@@H]2CN(C)[C@@]3(C(=O)Nc4ccccc43)[C@]23N=C(c2ccc(C)cc2)OC3=O)cc1
[9]
  IC50: 3.21 µM
[10]
  IC50: 1.08 µM

## O=C1NC(O)(c2ccc(Cl)cc2)C(c2ccc(Cl)cc2)=C1c1ccc(Cl)cc1 (stereo not drawn)
[11]
  Activity: 97%
[12]
  IC50: 0.93 µM
[13]
  IC50: 1.48 µM
[14]
  IC50: 0.59 µM

## C[C@@H]1[C@@H]2CCCC[C@@H]2N2[C@H]1[C@@H](c1ccccc1)[C@@]1(CCC/C(=C\c3ccccc3)C1=O)[C@@]21C(=O)Nc2cc(Cl)ccc21
[9]
  IC50: 3.7 µM

## CN1[C@H](c2ccc(Cl)cc2)[C@@]2(C[C@]13C(=O)Nc1ccc(Br)cc13)NC(=O)N(c1ccc(F)c(Cl)c1)C2=O
[6]
  IC50: 1.3 µM

## Cc1cc(S(=O)(=O)/N=C2/NCCN2Cc2ccc(C(F)(F)F)cc2)c(SCc2nc(N)nc(N3CCN(c4cccc(F)c4)CC3)n2)cc1Cl
[5]
  IC50: 4.6 µM
[6]
  IC50: 4.6 µM
[7]
  IC50: 4.6 µM

## COc1ccc(-c2nc3sc(-c4ccc(Br)cc4Br)cn3n2)cc1
[15]
  IC50: 1.6 µM
[16]
  IC50: 1.4 µM
[17]
  deltaG: -7.55 kcal/mol
[18]
  IC50: 1.3 µM
[6]
  IC50: 1.2 µM

## C[C@@H]1CN(C)[C@]2(C(=O)N(CN3CCSCC3)c3ccccc32)[C@@]12CCC/C(=C\c1ccccc1)C2=O
[2]
  IC50: 31 µg/mL
[3]
  IC50: 31 µg/mL
[4]
  IC50: 31 µg/mL (≈ 61.8 µM)

## O=C(Nc1cccc(Cl)c1)Sc1nnc(-c2ccc(Cl)cc2)n1-c1ccccc1
[19]
  IC50: 4.15 µM
[20]
  IC50: 3.85 µM
[21]
  IC50: 17.5 µM

## Cc1cc(S(=O)(=O)/N=C2/NCCN2Cc2ccc(C(F)(F)F)cc2)c(SCc2nc(N)nc(N3CCN(c4cccc(C(F)(F)F)c4)CC3)n2)cc1Cl
[5]
  IC50: 5 µM
[6]
  IC50: 5 µM
[7]
  IC50: 5 µM

## O=C(c1nc2ccccc2[nH]1)[C@H]1[C@H](c2ccccc2)C2CC3CCCCC3N2[C@]12C(=O)Nc1ccc(Cl)cc12 (stereo partly drawn)
[22]
  Activity: 34.31%
[2]
  IC50: 2.4 µM
[20]
  IC50: 7.81 µM
[23]
  IC50: 7.24 µM
[24]
  Activity: 49.83%
[25]
  IC50: 3.4 µM
[26]
  Activity: 51.51%
[27]
  Activity: 57.53%

## O=C1/C(=C/c2cccc(Cl)c2)c2ccccc2N1S(=O)(=O)c1cccc(Cl)c1
[3]
  IC50: 6.17 µM
[20]
  IC50: 12.5 µM
[23]
  IC50: 11.2 µM
[28]
  Ki: 0.031 µM
[29]
  Ki: 7.24 µM
